Experimental data as given in PMC10849753, “Antiproliferative activity of platinum(II) and copper(II) complexes containing novel biquinoxaline ligands” (Metallomics: Integrated Biometal Science, 2024).

System: A172, LN229, U87, A549, Hela, PC-3, and MDA-231 cells
Test: ROS production, DCFDA assay, all used cell lines
Format: cell-based, human
Settings: positive control at 500 μM concentration
Protocol: The reactive oxygen species (ROS) formation on the selected cell lines upon exposure to the synthesized Cu(II) and Pt(II) complexes was investigated using the oxidation-sensitive dye, 2ʹ,7ʹ-dichlorofluorescein diacetate (DCFDA, #D6883 Sigma-Aldrich). The cell lines (A172, LN229, U87, HeLa, MDA-231, PC-3, A549, and CHO-K1) were seeded (6 × 10^3 cells/well) into the 96-well plates and incubated at 37°C and 5% CO2 for 24 h. After that, the Cu(II) and Pt(II) complexes, at a concentration range of 6.25 to 100 μM, were added to the cell monolayers. Hydrogen peroxide (H2O2), at concentrations from 50 to 500 μM, was utilized as a positive control. The following day, 5 μM of DCFDA in PBS was added to the cell monolayers and, then, the plate was incubated for 30–45 min. Consequently, the fluorescence intensity was measured with 485 nm excitation and 535 nm emission wavelengths using a microplate reader. The fluorescence values of each treatment were normalized to the negative control, including only growth medium without any treatment. The assay was repeated in triplicate.

For `OO` [H2O2, Hydrogen peroxide, reference compound], the ROS generation was 3 fold.
